Laboratory results as given in patent publication US20240350450A1, “COMPOSITION COMPRISING a-KE[…] (a-KG) AND 5-HYDROXYMETHYL-2-FURFURAL (5-HMF) TO IMPROVE HEMOGLOBIN-MEDIATED OXYGEN SUPPLY” (CYL GmbH, priority 2021, published 2024).
Entries after “also recorded” stand apart in the source; their conditions may differ.

Columns and labels:
hypoxia = conditions: pigs exposed to hypoxia; cited from earlier work
hemoglobin (Hb) = target: T1, hemoglobin (Hb) (Homo sapiens, UniProt P68871+P69905); test: in vitro high-throughput determination of oxygen dissociation curves (ODC) in whole blood samples; type: biochemical; conditions: for Hill coefficient (HC) / P50 / Hb oxygen binding affinity (Hb-O2 affinity): human whole blood, low, medium and high dosage, 37° C., 40 mmHg PCO2
T1 construct: Venous blood was collected from 20 healthy subjects (ten women, ten men) aged 18 to 40 years; from tissue; host or cells: human venous whole blood (erythrocytes) of healthy volunteers
Experimental: Venous blood was collected from 20 healthy subjects (ten women, ten men) aged 18 to 40 years. […] Immediately after blood collection, blood gas analysis was performed (ABL800 flex, radiometer) and samples were stored on ice and processed within eight hours.
The recommended maximum daily dose of 5-HMF of Sanopal® (Cyl, Austria) is 720 mg. Assuming its total distribution in the blood volume of a 70 kg person to be approximately 5000 ml (16), the low dose of 5-HMF was defined as 0.14 mg/ml ([…]).
To ensure stable conditions during the ODC measurement, the measurement setup was set up in an environmentally controlled, closed device (EC box). This box is temperature-controlled (37° C.) and contains the experimental setup consisting of a humidifier, a cover for the microplate reader, tubes and valves. A modified 96-well plate was used (a special coating process ensures a thin, yet adherent layer of red blood cells for optimal fluorescence measurement), which enabled a constant gas flow across all wells in a meandering gas flow channel. The measuring plate is integrated into a gas system consisting of gas bags, gas hoses, humidifiers, gas mixers and a peristaltic pump.
The blood samples were placed in the individual wells using a special stamping technique so that a film consisting of a few cell layers could form. Oxygen saturation was measured in each well using dual-wavelength spectroscopy and oxygen partial pressure was measured using the fluorescence lifetime of commercial oxygen sensors at the inlet and outlet ports of the measuring plate. An oxygen ramp of around 20% by volume to 0% by volume was formed, so that a dissociation curve can be measured. The measurements were carried out every minute in a conventional fluorescence plate reader, so that up to 92 samples of whole blood could be analyzed within ˜25 min.
For the ODC experiments, gas mixtures containing 40 mmHg PCO2 were used, and the temperature was kept constant at 37° C.
The statistical analysis was performed using IBM SPSS Statistics 25. The unpaired t-test was used to analyze baseline differences between substance compositions. ANOVA with repeated measures design was used to determine P50 and HC differences between the different dosages and substance compositions.
Post-hoc t-test (Bonferroni-corrected) and ANOVA with repeated measures design were used for each individual substance or a combination of two substances to identify the location and magnitude of changes. Linear regression analysis was used to determine the concentration dependence for each substance. P<0.05 was considered significant. Data are presented as mean±SD.

[1] = 143 mg/kg 5-HMF, animal studies; cited from earlier work
HbO2 affinity = conditions: human subjects exposed to hypoxia, sickle cell anemia patients; cited from earlier work
severe hypoxia = conditions: animal model of severe hypoxia; cited from earlier work

T1 sequence (P69905 2-142 limits assumed): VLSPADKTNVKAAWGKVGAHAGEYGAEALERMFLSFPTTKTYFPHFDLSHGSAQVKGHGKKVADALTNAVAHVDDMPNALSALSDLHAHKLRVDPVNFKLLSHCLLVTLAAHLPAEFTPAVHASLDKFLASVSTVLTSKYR
T1 sequence (P68871 2-147 limits assumed): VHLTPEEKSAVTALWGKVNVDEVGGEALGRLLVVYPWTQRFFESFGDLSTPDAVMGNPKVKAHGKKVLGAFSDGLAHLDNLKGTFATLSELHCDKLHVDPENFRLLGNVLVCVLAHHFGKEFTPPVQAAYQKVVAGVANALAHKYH

Row | Compound | arterial oxygen saturation (SO2) (hypoxia) | hypoxia-associated increase in pulmonary arterial pressure (hypoxia) | Hill coefficient (HC) (hemoglobin (Hb)) | P50 / Hb oxygen binding affinity (Hb-O2 affinity) (hemoglobin (Hb)) | adverse effects [1] | HbO2 affinity (HbO2 affinity) | hemodynamic stability and microvascular oxygenation (severe hypoxia) | dose dependence of P50 (hemoglobin (Hb); linear regression over low, medium, high dose)
1 | O=Cc1ccc(CO)o1 [5-HMF, 5-hydroxymethyl-2-furfural] | improved arterial oxygen saturation | attenuation | significantly changed | strong dose-dependent increase in Hb-O2 affinity; also recorded: significantly changed P50; also recorded: strong dose-dependent increase in HbO2 affinity; also recorded: significant reduction in the P50 | increase in serum gamma globulin levels and the relative spleen weight | increases in HbO2 affinity were detected | protect against hemodynamic instability and maintain microvascular oxygenation | –
2 | O=C(O)CCC(=O)C(=O)O [α-KG, α-ketoglutaric acid] | – | – | altered | altered P50 | – | – | – | lowest effect
